Measurements taken from US9937199B2, “Materials and methods for preventing and treating anastomotic leaks” (THE UNIVERSITY OF CHICAGO, priority 2012, dated 2018).
Converted amounts (≈) assume the structure as drawn.

Experiments:
P. aeruginosa MPAO1-P2 = experiment: Antibiotic resistance of P2 strain; format: cell-based, Pseudomonas aeruginosa; conditions: for fold higher resistance of P2 strain compared to P1 strain: P2 vs P1
Experimental: FIG. 11. Chloramphenicol resistance of P1 and P2 strains. Strains were cultured in TSB containing 250 μg/ml chloramphenicol and grown in 96-well plate (150 μl/well, shaking at 150 rpm, 37° C. Cell density was measured on Plate Reader at OD 600 nm. Values represent the mean of triplicate cultures.

P. aeruginosa MPAO1-P1 = experiment: Antibiotic resistance of P1 strain; format: cell-based; conditions: Pseudomonas aeruginosa, MPAO1P1

Row | SMILES | fold higher resistance of P2 strain compared to P1 strain (P. aeruginosa MPAO1-P2) | MIC (P. aeruginosa MPAO1-P1) | MIC (P. aeruginosa MPAO1-P2; Pseudomonas aeruginosa, MPAO1P2, P2 strain)
1 | O=C(N[C@H](CO)[C@H](O)c1ccc([N+](=O)[O-])cc1)C(Cl)Cl [chloramphenicol] | about 6 fold |  | 
2 | CCn1cc(C(=O)O)c(=O)c2cc(F)c(N3CCNCC3)cc21 [norfloxacin] | 10 fold | 0.38 µg/mL (≈ 1.19 µM) | 3.8 µg/mL (≈ 11.9 µM)
